Reference: US11992497B2 (priority 2021, dated 2024)
Like-named read-outs stand apart in the source and are kept apart here.

Experiments:
[1] = Hepatocyte stability and metabolite profiling; assay type: in vitro ADME, human; conditions: cryopreserved hepatocytes in suspension; Human cryopreserved hepatocytes
Method: (§1) The objective of this study was to investigate the stability of the test compound, CBG, in human, rat, dog, mouse, monkey and minipig cryopreserved hepatocytes. Follow-on metabolite profiling was performed.
(§2) CBG was incubated up to 2 hr with cryopreserved hepatocytes. Cryopreserved hepatocytes in suspension were added to test compound in supplemented media following pre-incubation to initiate the reaction and the reactions were stopped by organic solvent at the appropriate time points. The termination plates were centrifuged and sample supernatants were analysed using Cyprotex generic LC MS/MS conditions to generate intrinsic clearance values for CBG. Two control compounds for each species were included in the assay and if the values for these compounds were not within the specified limits the results were rejected and the experiment repeated.
(§3) Following the hepatocyte stability assay the samples were 59tilized for metabolite profiling using suitable high-resolution LC-MS/MS conditions. The 40 and 60 minute human samples, 20 and 120 minute rat samples, 10 and 20 minute dog and monkey samples, 20 and 60 minute mouse samples, and 40 and 120 minute minipig samples were compared against the 0 minute control sample to establish which and how many metabolites were formed. […] No further analysis was carried out with the mouse species.
(§4) The areas and percentages reported for the parent and metabolites were calculated using the XIC data. Metabolite observed at greater than 1% of the total of drug related material are reported. […] For accuracy, a ppm error of less than 5 is desirable; when the response for a metabolite observed is low the ppm error maybe greater than 5. Where a metabolite has been referred to as a potential oxidation it can refer to a potential hydroxylation, epoxidation or oxide formation. Representative collision induced dissociation (CID) mass spectra were obtained for the metabolites found.

[2] = tested on: cryopreserved hepatocytes; experiment: Hepatocyte stability and metabolite profiling; assay type: in vitro ADME, human; conditions: human hepatocyte samples
Method: as §1, §2, §3, §4

[3] = Quantification of CBG and CBG glucuronide in rat plasma (LC-MS/MS); assay type: in vivo, Sprague-Dawley rat
Method: The purpose of this study was to quantify cannabigerol (CBG) in rat plasma and brain.
Seven- to nine-week-old male and female Sprague-Dawley received either a single dose or once daily dosing for 21 days of vehicle or CBG at three different dosage levels as shown in the Table below.
Approximately 0.2-0.25 mL blood was collected during the first 24 hours after the single dose, and at multiple times points after the terminal dose for the animals receiving daily dosing for 21 days. Liver, kidney, and colon samples were collected and fixed in 10% NBF for 48 hours, then stored in 70% ethanol at room temperature. Brain samples were collected and flash frozen.
Analytical curves were constructed using non-zero standards with CBG concentration ranging from 0.0025 to 2.500 μg/mL and 2.500-100.0 μg/mL in blank rat plasma samples and 1.0 to 2500 ng/mL in blank brain tissues. A blank sample was used to exclude contamination.
Instrument Used: AB SCIEX QTRAP 4500/Shimadzu Prominence LC

[4] = tested on: human intestine microsomes; experiment: Metabolic stability in human intestine microsomes (UDPGA, UGT activity only); assay type: in vitro ADME
Method: (§5) The objective of this study was to investigate the stability of the test compound, CBG, in the presence of intestinal microsomes that only have UGT activity and no CYP activity.
(§6) Test compound (1 μM) was incubated with pooled intestinal microsomes at 6 time points over the course of a 60 min assay and the test compound is analyzed by LC-MS/MS.
(§7) The final incubation volume is 500 μL. A minus cofactor control incubation was included for each compound tested where 0.1 M Tris, 5 mM MgCl2 buffer pH 7.4 is added instead of UDPGA (minus UDPGA). Two control compounds were included. All incubations were performed singularly for each test compound.
(§8) Each compound was incubated for 0, 5, 10, 20, 40 and 60 min. The control (minus UDPGA) was incubated for 60 min only. The reactions were stopped by transferring incubate into acetonitrile at the appropriate time points, in a 1:3 ratio. The termination plates were centrifuged at 3,000 rpm for 20 min at 4° C. to precipitate the protein.
(§9) Following protein precipitation, the sample supernatants were combined in cassettes of up to 4 compounds, internal standard was added and samples analysed using Cyprotex generic LC-MS/MS conditions.
(§10) From a plot of ln peak area ratio (compound peak area/internal standard peak area) against time, the gradient of the line was determined. Subsequently, half-life and intrinsic clearance were calculated using the equations below: […]

[5] = as above; assay type: in vitro ADME; conditions: human, pooled intestinal microsomes, pH 7.4, 1 μM, 0.5 mg/mL microsomes + alamethicin, UDPGA
Method: as §5, §6, §7, §8, §9, §10

## CCCCCc1cc(O)c(C/C=C(\C)CCC=C(C)C)c(O)c1 [CBG, cannabigerol]
[1]
  half-life: 22.6 min
  hepatocyte CLint: 61.4 µL/min/1e6 cells
[2]
  number of metabolites observed: Seven
[3]; CBG 10 mg/kg oral gavage once daily, 15 min post Rx
  CBG concentration in rat plasma (Day 21): BLQ (BLQ—Below Limit of Quantification (2.5 ng/ml))
[3]; CBG 10 mg/kg oral gavage once daily, 30 min post Rx
  CBG concentration in rat plasma (Day 21): BLQ (BLQ—Below Limit of Quantification (2.5 ng/ml))
[3]; CBG 10 mg/kg oral gavage once daily, 24 hr post Rx
  CBG concentration in rat plasma (Day 21): BLQ (BLQ—Below Limit of Quantification (2.5 ng/ml))
[3]; CBG 10 mg/kg oral gavage once, 15 min post Rx
  CBG concentration in rat plasma (Day 1): BLQ (BLQ—Below Limit of Quantification (2.5 ng/ml))
[3]; CBG 10 mg/kg oral gavage once, 30 min post Rx
  CBG concentration in rat plasma (Day 1): BLQ (BLQ—Below Limit of Quantification (2.5 ng/ml))
[3]; CBG 10 mg/kg oral gavage once, 4 hr post Rx
  CBG concentration in rat plasma (Day 1): BLQ (BLQ—Below Limit of Quantification (2.5 ng/ml))
[3]; CBG 10 mg/kg oral gavage once, 8 hr post Rx
  CBG concentration in rat plasma (Day 1): BLQ (BLQ—Below Limit of Quantification (2.5 ng/ml))
[3]; CBG 10 mg/kg oral gavage once, 24 hr post Rx
  CBG concentration in rat plasma (Day 1): BLQ (BLQ—Below Limit of Quantification (2.5 ng/ml))
[3]; CBG 30 mg/kg oral gavage once daily, 30 min post Rx
  CBG concentration in rat plasma (Day 21): BLQ (BLQ—Below Limit of Quantification (2.5 ng/ml))
[3]; CBG 30 mg/kg oral gavage once daily, 1 hr post Rx
  CBG concentration in rat plasma (Day 21): BLQ (BLQ—Below Limit of Quantification (2.5 ng/ml))
[3]; CBG 30 mg/kg oral gavage once daily, 2 hr post Rx
  CBG concentration in rat plasma (Day 21): BLQ (BLQ—Below Limit of Quantification (2.5 ng/ml))
[3]; CBG 30 mg/kg oral gavage once daily, 4 hr post Rx
  CBG concentration in rat plasma (Day 21): BLQ (BLQ—Below Limit of Quantification (2.5 ng/ml))
[3]; CBG 30 mg/kg oral gavage once daily, 8 hr post Rx
  CBG concentration in rat plasma (Day 21): BLQ (BLQ—Below Limit of Quantification (2.5 ng/ml))
[3]; CBG 30 mg/kg oral gavage once daily, 24 hr post Rx
  CBG concentration in rat plasma (Day 21): BLQ (BLQ—Below Limit of Quantification (2.5 ng/ml))
[3]; CBG 30 mg/kg oral gavage once, 8 hr post Rx
  CBG concentration in rat plasma (Day 1): BLQ (BLQ—Below Limit of Quantification (2.5 ng/ml))
[3]; CBG 100 mg/kg oral gavage once daily, 24 hr post Rx
  CBG concentration in rat plasma (Day 21): BLQ (BLQ—Below Limit of Quantification (2.5 ng/ml))
[3]; CBG 100 mg/kg oral gavage once, 15 min post Rx
  CBG concentration in rat plasma (Day 1): BLQ (BLQ—Below Limit of Quantification (2.5 ng/ml))
[3]; CBG 100 mg/kg oral gavage once, 30 min post Rx
  CBG concentration in rat plasma (Day 1): BLQ (BLQ—Below Limit of Quantification (2.5 ng/ml))
[3]; CBG 100 mg/kg oral gavage once, 1 hr post Rx
  CBG concentration in rat plasma (Day 1): BLQ (BLQ—Below Limit of Quantification (2.5 ng/ml))
[3]; CBG 100 mg/kg oral gavage once, 2 hr post Rx
  CBG concentration in rat plasma (Day 1): BLQ (BLQ—Below Limit of Quantification (2.5 ng/ml))
[3]; CBG 100 mg/kg oral gavage once, 8 hr post Rx
  CBG concentration in rat plasma (Day 1): BLQ (BLQ—Below Limit of Quantification (2.5 ng/ml))
[3]; CBG 100 mg/kg oral gavage once, 24 hr post Rx
  CBG concentration in rat plasma (Day 1): BLQ (BLQ—Below Limit of Quantification (2.5 ng/ml))
[3]; both sexes, Sprague-Dawley, rat, plasma, oral, 10 mg/kg, CBG 10 mg/kg oral gavage once daily, 1 hr post Rx, read-out: CBG concentration in rat plasma (Day 21)
  concentration at 1 h: 0.00167 µg/mL
[3]; both sexes, Sprague-Dawley, rat, plasma, oral, 10 mg/kg, CBG 10 mg/kg oral gavage once daily, 4 hr post Rx, read-out: CBG concentration in rat plasma (Day 21)
  concentration at 4 h: 0.00473 µg/mL
[3]; both sexes, Sprague-Dawley, rat, plasma, oral, 10 mg/kg, CBG 10 mg/kg oral gavage once daily, 8 hr post Rx, read-out: CBG concentration in rat plasma (Day 21)
  concentration at 8 h: 0.00255 µg/mL
[3]; both sexes, Sprague-Dawley, rat, plasma, oral, 10 mg/kg, CBG 10 mg/kg oral gavage once, 2 hr post Rx, read-out: CBG concentration in rat plasma (Day 1)
  concentration at 2 h: 0.012 µg/mL
[3]; both sexes, Sprague-Dawley, rat, plasma, oral, 30 mg/kg, CBG 30 mg/kg oral gavage once, 15 min post Rx, read-out: CBG concentration in rat plasma (Day 1)
  concentration at 15 min: 0.0038 µg/mL
[3]; both sexes, Sprague-Dawley, rat, plasma, oral, 30 mg/kg, CBG 30 mg/kg oral gavage once, 30 min post Rx, read-out: CBG concentration in rat plasma (Day 1)
  concentration at 30 min: 0.0152 µg/mL
[3]; both sexes, Sprague-Dawley, rat, plasma, oral, 30 mg/kg, CBG 30 mg/kg oral gavage once, 24 hr post Rx, read-out: CBG concentration in rat plasma (Day 1)
  concentration at 24 h: 0.00275 µg/mL
[3]; both sexes, Sprague-Dawley, rat, plasma, oral, 100 mg/kg, CBG 100 mg/kg oral gavage once daily, 15 min post Rx, read-out: CBG concentration in rat plasma (Day 21)
  concentration at 15 min: 0.0416 µg/mL
[3]; both sexes, Sprague-Dawley, rat, plasma, oral, 100 mg/kg, CBG 100 mg/kg oral gavage once daily, 30 min post Rx, read-out: CBG concentration in rat plasma (Day 21)
  concentration at 30 min: 0.178 µg/mL
[3]; both sexes, Sprague-Dawley, rat, plasma, oral, 100 mg/kg, CBG 100 mg/kg oral gavage once daily, 1 hr post Rx, read-out: CBG concentration in rat plasma (Day 21)
  concentration at 1 h: 0.226 µg/mL
[3]; both sexes, Sprague-Dawley, rat, plasma, oral, 100 mg/kg, CBG 100 mg/kg oral gavage once daily, 2 hr post Rx, read-out: CBG concentration in rat plasma (Day 21)
  concentration at 2 h: 0.307 µg/mL
[3]; both sexes, Sprague-Dawley, rat, plasma, oral, 100 mg/kg, CBG 100 mg/kg oral gavage once, 4 hr post Rx, read-out: CBG concentration in rat plasma (Day 1)
  concentration at 4 h: 0.119 µg/mL
[3]; oral CBG 10-100 mg/kg, Days 1 and 21
  concentration of CBG in plasma (in words): low or below the level of quantitation (BLQ)
[3]; oral CBG, rat
  first pass metabolism to the glucuronide upon oral administration (in words): very high first pass metabolism to the glucuronide
[4]; CBG incubated with human intestine microsomes
  appearance of CBG-glucoronide (in words): appeared rapidly
[4]; by 10 minutes
  Comments: detectability of test compound: Test compound not detectable
[4]; incubated with human intestine microsomes
  disappearance of parent compound (in words): disappeared rapidly
[5]
  half-life at 1 µM: 1.57 min
[5]; from 0 and 5 minute time points only
  microsomal CLint at 1 µM: 884 µL/min/mg
